How the values were obtained:
[1] = target: T1, 5-hydroxytryptamine receptor 1B (Homo sapiens, UniProt P28222); assay: Selectivity ratio against cloned human 5-HT1B receptor to that of h5-HT1D receptor
[2] = target: T1, 5-hydroxytryptamine receptor 1B; assay: Binding affinity towards cloned human 5-hydroxytryptamine 1B receptor
[3] = target: 5-hydroxytryptamine receptor 1D (Homo sapiens, UniProt P28221); assay: Binding affinity towards cloned human 5-hydroxytryptamine 1D receptor
5-hydroxytryptamine receptor 1D, sequence (P28221 whole entry): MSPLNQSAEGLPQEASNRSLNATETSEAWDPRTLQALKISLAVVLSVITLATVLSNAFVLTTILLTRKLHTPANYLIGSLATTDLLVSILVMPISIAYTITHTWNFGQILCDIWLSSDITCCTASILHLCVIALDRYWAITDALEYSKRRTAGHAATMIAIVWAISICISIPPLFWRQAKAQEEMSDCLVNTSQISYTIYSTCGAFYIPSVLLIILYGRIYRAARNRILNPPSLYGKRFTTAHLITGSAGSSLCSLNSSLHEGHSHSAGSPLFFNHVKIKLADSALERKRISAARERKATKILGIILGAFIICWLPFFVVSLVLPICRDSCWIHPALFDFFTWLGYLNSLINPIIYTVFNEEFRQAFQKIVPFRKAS

T1 sequence (P28222 whole entry): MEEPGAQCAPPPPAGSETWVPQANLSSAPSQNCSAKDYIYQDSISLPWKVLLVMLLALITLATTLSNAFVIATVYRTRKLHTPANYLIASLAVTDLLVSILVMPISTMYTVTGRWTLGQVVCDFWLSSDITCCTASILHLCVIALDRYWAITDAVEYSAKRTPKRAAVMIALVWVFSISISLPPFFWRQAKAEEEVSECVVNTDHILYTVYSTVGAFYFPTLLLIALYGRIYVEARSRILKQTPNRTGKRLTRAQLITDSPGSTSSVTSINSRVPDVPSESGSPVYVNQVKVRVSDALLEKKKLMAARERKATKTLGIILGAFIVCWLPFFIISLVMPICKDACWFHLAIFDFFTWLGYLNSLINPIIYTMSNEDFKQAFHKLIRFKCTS

Compound | Selectivity [1] | Ki [2] [nM] | Ki [3] [nM]
Cc1ccc(S(=O)(=O)N2CC=C(c3ccc4[nH]cc(C[C@H]5CCCN5C)c4c3)CC2)cc1 | 21 | 17 | 0.8
CN1CCC[C@@H]1Cc1c[nH]c2ccc(C3=CCN(C(=S)NC4CCCCC4)CC3)cc12 |  | 13 | 2
CN1CCC[C@@H]1Cc1c[nH]c2ccc(C3=CCN(C(=O)Nc4cccc5ccccc45)CC3)cc12 | 8.4 | 3.8 | 0.45
CN1CCC[C@@H]1Cc1c[nH]c2ccc(C3=CCN(/C(S)=N/C45C[C@H]6C[C@@H](C4)C[C@@H](C5)C6)CC3)cc12 | 7 | 39 | 5.6
Cc1ccc(/N=C(\S)N2CC=C(c3ccc4[nH]cc(C[C@H]5CCCN5C)c4c3)CC2)cc1 | 3.9 |  | 
Cc1ccc(NC(=O)N2CC=C(c3ccc4[nH]cc(C[C@H]5CCCN5C)c4c3)CC2)cc1 | 9.7 | 3 | 0.31
COc1ccc(NC(=O)N2CC=C(c3ccc4[nH]cc(C[C@H]5CCCN5C)c4c3)CC2)cc1 | 10 | 4.2 | 0.42
CN1CCC[C@@H]1Cc1c[nH]c2ccc(C3=CCN(C(=S)Nc4ccccc4)CC3)cc12 |  | 5.8 | 0.68
CN1CCC[C@@H]1Cc1c[nH]c2ccc(C3=CCN(/C(S)=N/c4cccc5ccccc45)CC3)cc12 | 4.6 | 3.2 | 0.7
CN1CCC[C@@H]1Cc1c[nH]c2ccc(C3=CCN(C(=O)NC4CCCCC4)CC3)cc12 | 4.6 | 14 | 3
CN1CCC[C@@H]1Cc1c[nH]c2ccc(C3=CCN(/C(S)=N/C4CCCCC4)CC3)cc12 | 6.3 |  | 
COc1ccc(NC(=S)N2CC=C(c3ccc4[nH]cc(C[C@H]5CCCN5C)c4c3)CC2)cc1 | 5.2 | 2.4 | 0.46
CN1CCC[C@@H]1Cc1c[nH]c2ccc(C3=CCN(/C(S)=N/c4ccccc4)CC3)cc12 | 8.5 |  | 
COc1ccc(S(=O)(=O)N2CC=C(c3ccc4[nH]cc(C[C@H]5CCCN5C)c4c3)CC2)cc1 | 19 | 14 | 0.76
CN(C)CCc1c[nH]c2ccc(C3=CCN(C)CC3)cc12 |  | 610 | 8
CN1CCC[C@@H]1Cc1c[nH]c2ccc(C3=CCN(C(=O)Nc4ccccc4)CC3)cc12 | 11 | 4.8 | 0.45
CN1CCC[C@@H]1Cc1c[nH]c2ccc(C3=CCN(C(=O)NC45C[C@H]6C[C@@H](C4)C[C@@H](C5)C6)CC3)cc12 | 2.8 | 11 | 4
CN1CCC[C@@H]1Cc1c[nH]c2ccc(C3=CCN(/C(S)=N/c4ccc(Cl)cc4)CC3)cc12 | 2.7 | 1.5 | 0.56
Cc1ccc(NC(=S)N2CC=C(c3ccc4[nH]cc(C[C@H]5CCCN5C)c4c3)CC2)cc1 |  | 1.5 | 0.38
CN1CCC[C@@H]1Cc1c[nH]c2ccc(C3=CCN(C(=O)Nc4ccc(Cl)cc4)CC3)cc12 | 10 | 3.8 | 0.38
CN1CCC[C@@H]1Cc1c[nH]c2ccc(C3=CCN(S(=O)(=O)c4cccc5ccccc45)CC3)cc12 | 26 | 23 | 0.88
